Results reported in US9062066B2, “Anti-inflammatory compound having inhibitory activity against multiple tyrosine kinases and pharmaceutical composition containing same” (KOREA INSTITUTE OF SCIENCE AND TECHNOLOGY, priority 2010, dated 2015).
Read-outs that look alike come from different tables or passages of the source.

How the values were obtained:
[1] = system: oxazolone-induced skin inflammation of Balb/C mouse ears; assay: mouse skin inflammatory model induced by oxazolone (ear thickness); assay type: in vivo; settings: 20 ul of 0.1% compound topical on ear, 36 hours after oxazolone
Outline: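 Oxazolone was used to induce skin inflammation in the ears of 8-week-old Balb/C mice. Ear thickness was measured by caliper before induction, again at 36 h to capture inflammatory swelling, and averaged per group (n=4).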

mouse skin fibroblast = assay: inhibition of migration of activated fibroblast (scratch wound); assay type: cell-based; settings: 0.5 uM compound, 10 ng/ml TGF-β1, 24 hours, read-out: Inhibition (%) of migration of activated fibroblast
Outline: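 Scratch wound was made on a fibroblast monolayer, then cells were kept in DMEM with 10 ng/ml TGF-β1 at 37° C for 24 hours. After formalin fixation and crystal violet staining, cells that had moved into the wound were counted at 100× in five random fields and averaged.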

Lyn tyrosine kinase = Lyn tyrosine kinase (Homo sapiens (Human), UniProt P07948); assay: in vitro Lyn tyrosine kinase inhibition; assay type: biochemical; settings: 1 uM compound; read-out: % inhibition against Lyn
DDR2 tyrosine kinase = DDR2 tyrosine kinase (Homo sapiens (Human), UniProt Q16832); assay: in vitro DDR2 tyrosine kinase inhibition (GST-fused kinase domain); assay type: biochemical; settings: 1 uM compound; read-out: % inhibition against DDR2
Fgr tyrosine kinase = Fgr tyrosine kinase (Homo sapiens (Human), UniProt P09769); assay: in vitro Fgr tyrosine kinase inhibition; assay type: biochemical; settings: 1 uM compound; read-out: % inhibition against Fgr
[2] = system: NO synthesis in J744A.1 macrophage; assay: inhibition of nitric oxide (NO) synthesis in LPS-activated macrophages (Griess reagent); assay type: cell-based; settings: read-out: Inhibition (%) of NO synthesis
[3] = system: α-smooth muscle actin protein expression in skin fibroblast cells; assay: inhibition of α-smooth muscle actin expression in fibroblast activated by type I collagen and TGF-β1 (western blotting); assay type: cell-based, Balb/C mouse; settings: Mus musculus, 0.5 uM compound, 10 ng/ml TGF-β1, 48 hours, type I collagen, read-out: Inhibition (%) of α-smooth muscle actin increase
Outline: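 α-Smooth muscle actin protein was detected by western blotting with chemiluminescence on X-ray film. Levels were quantified by densitometry of the band.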

DDR1 tyrosine kinase = DDR1 tyrosine kinase (Homo sapiens (Human), UniProt Q08345); assay: in vitro DDR1 tyrosine kinase inhibition (GST-fused kinase domain); assay type: biochemical; settings: 1 uM compound; read-out: % inhibition against DDR1
Hck tyrosine kinase = Hck tyrosine kinase (Homo sapiens (Human), UniProt P08631); assay: in vitro Hck tyrosine kinase inhibition; assay type: biochemical; settings: 1 uM compound; read-out: % inhibition against Hck
c-Src tyrosine kinase = c-Src tyrosine kinase (Homo sapiens (Human), UniProt P12931); assay: in vitro c-Src tyrosine kinase inhibition (32P-ATP, poly(D4Y)n substrate); assay type: biochemical; settings: 1 uM compound; read-out: % inhibition against c-Src
[4] = system: TNF-α synthesis in J744A.1 macrophages; assay: inhibition of TNF-α synthesis in LPS-activated macrophages (ELISA); assay type: cell-based; settings: Macrophage, read-out: Inhibition (%) of TNF-α synthesis
[5] = 10 μM compound, 100 ng/ml LPS, 6 hours

Sequence of Fgr tyrosine kinase (P09769 whole entry): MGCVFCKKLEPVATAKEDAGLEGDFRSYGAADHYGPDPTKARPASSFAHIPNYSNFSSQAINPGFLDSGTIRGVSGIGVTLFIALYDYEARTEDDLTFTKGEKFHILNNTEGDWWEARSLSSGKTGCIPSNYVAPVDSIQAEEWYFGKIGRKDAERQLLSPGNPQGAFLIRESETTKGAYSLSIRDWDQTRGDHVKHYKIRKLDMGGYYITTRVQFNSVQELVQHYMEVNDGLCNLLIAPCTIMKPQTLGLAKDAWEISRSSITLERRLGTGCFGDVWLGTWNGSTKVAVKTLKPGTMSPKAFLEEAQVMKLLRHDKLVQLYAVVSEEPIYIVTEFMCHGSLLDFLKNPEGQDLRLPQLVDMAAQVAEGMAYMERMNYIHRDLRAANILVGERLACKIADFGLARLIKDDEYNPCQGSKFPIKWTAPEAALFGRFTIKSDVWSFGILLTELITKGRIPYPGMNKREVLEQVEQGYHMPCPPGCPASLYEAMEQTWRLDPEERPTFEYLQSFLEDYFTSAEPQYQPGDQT
Sequence of DDR1 tyrosine kinase (Q08345 610-905): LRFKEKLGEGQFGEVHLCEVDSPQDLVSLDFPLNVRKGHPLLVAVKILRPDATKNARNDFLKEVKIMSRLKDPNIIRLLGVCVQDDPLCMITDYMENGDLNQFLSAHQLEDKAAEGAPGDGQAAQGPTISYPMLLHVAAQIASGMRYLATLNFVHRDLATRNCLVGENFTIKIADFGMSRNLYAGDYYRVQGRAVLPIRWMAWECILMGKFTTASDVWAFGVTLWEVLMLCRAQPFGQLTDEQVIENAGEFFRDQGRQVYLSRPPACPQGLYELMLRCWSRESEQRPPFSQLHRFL
Sequence of c-Src tyrosine kinase (P12931 whole entry, looked up): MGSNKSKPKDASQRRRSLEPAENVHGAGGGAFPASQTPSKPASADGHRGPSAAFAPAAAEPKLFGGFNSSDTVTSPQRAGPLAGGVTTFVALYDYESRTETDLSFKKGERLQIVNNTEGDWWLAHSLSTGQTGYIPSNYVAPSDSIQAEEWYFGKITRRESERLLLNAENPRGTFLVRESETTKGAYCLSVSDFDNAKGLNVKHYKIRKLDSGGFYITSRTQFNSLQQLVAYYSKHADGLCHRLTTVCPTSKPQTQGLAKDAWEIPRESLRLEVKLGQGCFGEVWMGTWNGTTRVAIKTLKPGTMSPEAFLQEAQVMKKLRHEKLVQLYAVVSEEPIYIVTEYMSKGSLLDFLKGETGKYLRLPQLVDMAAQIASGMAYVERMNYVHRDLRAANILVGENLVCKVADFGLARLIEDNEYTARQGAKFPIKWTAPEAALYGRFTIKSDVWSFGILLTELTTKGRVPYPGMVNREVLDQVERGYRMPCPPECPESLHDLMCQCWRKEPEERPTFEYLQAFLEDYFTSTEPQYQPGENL
Sequence of Hck tyrosine kinase (P08631 whole entry): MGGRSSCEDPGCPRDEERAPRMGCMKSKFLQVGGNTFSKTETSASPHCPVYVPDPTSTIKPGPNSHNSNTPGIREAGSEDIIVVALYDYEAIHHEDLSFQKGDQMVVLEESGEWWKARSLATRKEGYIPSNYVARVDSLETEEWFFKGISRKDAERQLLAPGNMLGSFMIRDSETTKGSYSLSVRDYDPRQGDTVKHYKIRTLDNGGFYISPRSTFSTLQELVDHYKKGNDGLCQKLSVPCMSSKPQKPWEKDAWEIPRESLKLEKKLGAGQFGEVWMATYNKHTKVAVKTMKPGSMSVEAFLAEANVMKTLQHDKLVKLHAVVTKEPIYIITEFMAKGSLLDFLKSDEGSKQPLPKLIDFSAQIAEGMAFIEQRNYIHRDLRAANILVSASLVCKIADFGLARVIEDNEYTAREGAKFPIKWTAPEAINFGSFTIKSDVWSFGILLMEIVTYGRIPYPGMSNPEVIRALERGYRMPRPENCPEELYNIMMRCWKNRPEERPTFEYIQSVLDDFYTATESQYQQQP
Sequence of Lyn tyrosine kinase (P07948 whole entry, the tested form may be a part): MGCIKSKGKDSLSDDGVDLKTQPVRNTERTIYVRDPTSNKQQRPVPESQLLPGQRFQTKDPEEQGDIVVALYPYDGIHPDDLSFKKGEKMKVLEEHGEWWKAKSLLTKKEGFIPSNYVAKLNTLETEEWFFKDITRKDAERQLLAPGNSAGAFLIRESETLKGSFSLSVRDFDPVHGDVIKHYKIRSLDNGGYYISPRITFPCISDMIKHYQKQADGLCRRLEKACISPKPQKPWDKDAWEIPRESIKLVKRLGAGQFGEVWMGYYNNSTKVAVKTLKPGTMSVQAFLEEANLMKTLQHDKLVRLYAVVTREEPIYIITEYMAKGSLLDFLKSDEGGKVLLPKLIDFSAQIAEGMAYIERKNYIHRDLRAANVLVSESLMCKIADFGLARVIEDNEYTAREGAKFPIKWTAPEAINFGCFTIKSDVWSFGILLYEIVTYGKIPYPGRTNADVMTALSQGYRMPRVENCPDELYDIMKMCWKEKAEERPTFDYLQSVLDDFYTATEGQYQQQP
Sequence of DDR2 tyrosine kinase (Q16832 563-849): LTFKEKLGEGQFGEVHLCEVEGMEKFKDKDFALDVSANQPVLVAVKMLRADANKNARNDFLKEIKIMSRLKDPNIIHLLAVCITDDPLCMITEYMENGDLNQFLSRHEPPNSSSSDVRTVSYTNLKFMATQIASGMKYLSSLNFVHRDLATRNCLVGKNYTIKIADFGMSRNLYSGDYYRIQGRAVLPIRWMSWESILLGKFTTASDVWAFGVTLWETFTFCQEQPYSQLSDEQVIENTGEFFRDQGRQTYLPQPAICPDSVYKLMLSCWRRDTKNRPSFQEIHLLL

SMILES	Inhibition (%) of increase of ear thickness [1]	inhibition at 0.5 µM (mouse skin fibroblast)	inhibition at 1 µM (Lyn tyrosine kinase)	inhibition at 1 µM (DDR2 tyrosine kinase)	inhibition at 1 µM (Fgr tyrosine kinase)	inhibition at 10 µM ([2]; 24 h)	inhibition at 0.5 µM [3]	inhibition at 1 µM (DDR1 tyrosine kinase)	inhibition at 1 µM (Hck tyrosine kinase)	inhibition at 1 µM (c-Src tyrosine kinase)	inhibition at 10 µM ([4]; 6 h)	inhibition at 10 µM ([2]; 10 μM compound, LPS, 24 hours)	inhibition at 10 µM [4, 5]
CCNCc1ccc(-c2cc3ncnc(Nc4cccc(O)c4)c3s2)o1 [LCB 03-0091, 3-(6-(5-((ethylamino)methyl)furan-2-yl)thieno[3,2-d]pyrimidin-4-ylamino)phenol]	49%	39%	> 70%	> 70%	> 70%	92%	39%	> 70%	> 70%	> 70%	68%		
CCNCc1cccc(-c2cc3ncnc(Nc4cccc(O)c4)c3s2)c1.Cl [LCB 03-0065, 3-(6-(3-((ethylamino)methyl)phenyl)thieno[3,2-d]pyrimidin-4-ylamino)phenol]	52%	35%	> 80%	> 70%	> 80%		58%	> 70%	> 80%	> 80%		84%	79%
Oc1cccc(Nc2ncnc3cc(-c4ccc(CN5CCCC5)s4)sc23)c1 [LCB 03-0085, 3-(6-(5-(pyrrolidin-1-ylmethyl)thiophene-2-yl)thieno[3,2-d]pyrimidin-4-ylamino)phenol]	53%	35%	> 70%	> 80%	> 70%	93%	51%	> 80%	> 70%	> 70%	74%		
Oc1cccc(Nc2ccnc3cc(-c4cccc(CN5CCNCC5)c4)sc23)c1 [LCB 03-0111, 3-(2-(3-(piperazin-1-ylmethyl)phenyl)thieno[3,2-b]pyridin-7-ylamino)phenol]	71%	58%	> 80%	> 90%	> 80%	92%	79%	> 90%	> 80%	> 80%	57%		
Oc1cccc(Nc2ccnc3cc(-c4ccc(CN5CCOCC5)cc4)sc23)c1 [LCB 03-0083, 3-(2-(4-(morpholinomethyl)phenyl)thieno[3,2-b]pyridin-7-ylamino)phenol]	47%	33%	> 60%	> 80%	> 60%		55%	> 80%	> 60%	> 60%		71%	62%
Oc1cccc(Nc2ncnc3cc(-c4ccc(CN5CCCCC5)s4)sc23)c1 [LCB 03-0093, 3-(6-(5-(piperidin-1-ylmethyl)thiophene-2-yl)thieno[3,2-d]pyrimidin-4-ylamino)phenol]	51%	31%	> 60%	> 80%	> 60%	79%	43%	> 80%	> 60%	> 60%	53%		
Cl.Oc1cccc(Nc2ncnc3cc(-c4cccc(CN5CCCCC5)c4)sc23)c1 [LCB 03-0060, 3-(6-(3-(piperidin-1-ylmethyl)phenyl)thieno[3,2-d]pyrimidin-4-ylamino)phenol]	66%	42%	> 80%	> 80%	> 80%		65%	> 80%	> 80%	> 80%		93%	78%
CCN(CC)Cc1ccc(-c2cc3ncnc(Nc4cccc(O)c4)c3s2)cc1 [LCB 03-0037]	33%	37%	> 80%	> 80%	> 70%		55%	> 80%	> 80%	> 80%		93%	73%
